In patent EP4796171A2 (Zealand Pharma A/S, priority 2017, dated 2018):
Several values for one entry are separate records, joined by “and”; a condition that tells them apart may be missing. Equal values may be shown once. Entries after “also recorded” stand apart in the source; their conditions may differ. Read-outs that look alike come from different tables or passages of the source.

Tests used:
human GLP-2 receptors = target: T1, human GLP-2 receptors (Homo sapiens, UniProt O95838, D470N); assay: GLP-2 receptor efficacy assay (cAMP AlphaScreen); assay type: cell-based
T1 sequence (O95838 1-553 D470N): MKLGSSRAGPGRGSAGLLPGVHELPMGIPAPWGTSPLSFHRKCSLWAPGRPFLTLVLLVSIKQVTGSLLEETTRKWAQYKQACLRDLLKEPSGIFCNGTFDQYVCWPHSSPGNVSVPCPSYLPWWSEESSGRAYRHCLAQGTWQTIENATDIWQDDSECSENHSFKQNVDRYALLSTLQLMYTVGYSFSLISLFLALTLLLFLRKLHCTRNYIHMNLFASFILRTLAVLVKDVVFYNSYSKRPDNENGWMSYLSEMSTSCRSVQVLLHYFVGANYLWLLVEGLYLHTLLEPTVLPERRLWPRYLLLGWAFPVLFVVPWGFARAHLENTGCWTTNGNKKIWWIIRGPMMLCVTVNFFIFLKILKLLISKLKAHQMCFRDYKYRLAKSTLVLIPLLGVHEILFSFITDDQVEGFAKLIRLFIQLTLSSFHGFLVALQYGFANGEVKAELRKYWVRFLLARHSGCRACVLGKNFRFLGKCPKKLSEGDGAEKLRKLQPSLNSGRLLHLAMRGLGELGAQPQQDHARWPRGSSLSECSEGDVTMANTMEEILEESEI
Excerpt: The hGLP2-R was purchased from MRC-geneservice, Babraham, Cambridge as an Image clone: 5363415 (11924-117). For subcloning into a mammalian expression vector, primers for subcloning were obtained from DNA-Technology, Risskov, Denmark. The 5' and 3' primers used for the PCR reaction include terminal restriction sites for cloning and the context of the 5' primer is modified to a Kozak consensus without changing the sequence of the product encoded by the ORF. A standard PCR reaction was run using Image clone 5363415 (11924-117) as a template with the above mentioned primers and Polymerase Herculase II Fusion in a total vol. of 50µl. The generated PCR product was purified using GFX PCR and Gel band purification kit, digested with restriction enzymes and cloned into the mammalian expression vector using Rapid DNA Ligation Kit. Ligation reaction was transformed to XL10 Gold Ultracompetent cells and colonies were picked for DNA production using Endofree Plasmid maxi kit. Subsequent sequence analysis was conducted by MWG Eurofins, Germany.
HEK293 cells were transfected using the Lipofectamine PLUS transfection method. The day before transfection, HEK293 cells were seeded in two T75 flasks at a density of 2 x 10^6 cells / T75 flask in cell culturing medium without antibiotics. On the day of transfection, cells were washed with 1x DPBS and medium was replaced with Optimem to a volume of 5 mL / T75 flask before addition of Lipofectamine-plasmid complexes were added gently and drop wise to the cells in T75 flasks and replaced with growth medium after 3 hours and again to growth medium supplemented with 500µg/mL G418 after 24 hours. After 4 weeks in G418 selection, clones were picked and tested in a functional assay.
The cAMP AlphaScreen® assay from Perkin Elmer was used to quantitate the cAMP response to activation of the GLP2 receptor. […] Table 2: GLP-2R EC50 measurements

[1] = plasma samples from SBS patients injected once daily (QD) subcutaneously with ZP1848; details: human, up to Day 56
[2] = plasma of healthy subjects after SC injections (once daily or once weekly) or single IV infusion of glepaglutide; details: human, up to 168 hours post dose
[3] = background statement; cited from earlier work
[4] = Phase 2 clinical trial, PK profile of ZP1848 and metabolites in SBS patients; assay type: in vivo, human; details: for Conc.: plasma
Experimental: A phase 2 clinical trial was conducted to i.a. determine the PK profile of ZP1848 and metabolites in human SBS patients.
The study was designed as a randomized, cross-over and double-blinded with three different doses of ZP1848 (10 mg, 1 mg, 0.1 mg) in 16 SBS patients.
The 18 SBS patients (16 patients completed the study) were randomized evenly and in a double-blinded fashion to each of the six cross-over dose level combinations: 10 mg/1 mg, 10 mg/0.1 mg, 1 mg/10 mg, 1 mg/0.1 mg, 0.1 mg/10 mg, 0.1 mg/1 mg of ZP1848. The patients were injected once daily (QD) subcutaneously with the above doses of ZP1848.
Blood samples for PK analysis were collected on several study visits throughout the study period: the study comprised a 1st baseline balance study (4 days), a 1st treatment period (21 days) including a 1st treatment balance study (last 4 days of 1st treatment period), followed by a wash-out period (at least 4 weeks); and a 2nd baseline balance study (4 days), a 2nd treatment period (21 days) including a 2nd treatment balance study (last 4 days of 2nd treatment period) and a follow-up period (at least 4 weeks).
PK sampling was performed at visit 11 (1st treatment, balance study) and visit 17 (second day of 2nd baseline study - after a wash out period), and again at visit 25 (2nd treatment balance study) and at visit 29 (last day of follow-up period).
At day visit 11 and visit 25 a full PK profile in steady state was investigated. PK samples were taken prior to injection of ZP1848, and at the following time points (+/- 10 minutes) after trial product administration: 1h, 2h, 4h, 6h, 8h, 10h, 12h and 24h. Each PK sample contained 2 mL of blood, resulting in a total of […] blood drawn for PK purposes. The plasma sample was immediately stored at -80°C after sampling.
Plasma samples were analyzed after immunoaffinity extraction followed by liquid chromatography mass spectrometry (LC-MS/MS). For each patient plasma concentrations were used for calculation of the pharmacokinetic parameters using the non-compartmental approach in Excel. Plasma terminal elimination half-life (T½) was determined as In(2)/ke where ke is the magnitude of the slope of the log linear regression of the log concentration versus time profile during the terminal phase.

Beagle Dogs = assay: 39-week subcutaneous administration to beagle dogs with 6-week recovery, intestine length and weight; assay type: in vivo; details: vs controls
Experimental: ZP1848 (0.25, 1 or 5 mg/kg/day) was given for 39 weeks subcutaneously to beagle dogs (22 to 24 weeks). Vehicle was used as the control. Recovery from any effect was evaluated during a 6 week recovery period. The study was conducted in accordance with the applicable sections of the United Kingdom Animals (Scientific Procedures) Act 1986, Amendment Regulations 2012 (the Act).
After 39 weeks the dogs were sacrificed and all animals were subject to a detailed necropsy. The length of the small and large intestines were measured separately and recorded in centimeters. The entire length of the gastrointestinal tract (starting at the duodenum and ending at the rectum) was removed and trimmed of any excessive mesentery, connective or adipose tissue and the measurements for the small and large intestine recorded by laying the small intestine and large intestine on a clean surface and measured with a tape measure. The sections required for histopathology were left unopened and flushed through with water. The remainder were opened, cleaned with water, carefully blotted dry prior to weighing. On completion of length and weight measurements, the gastrointestinal tract was processed and fixed in 10% Neutral Buffered Formalin, as per standard necropsy practice for this species.

Wistar rats = assay: Intestinotrophic effects after 26 weeks of daily SC dosing in rats; assay type: in vivo
Experimental: Wistar rats were dosed subcutaneously (SC) with vehicle, 1, 3 and 10 mg/kg ZP1848 on a daily basis for 26 weeks. Further sub-groups of control and high-dose animals were allowed a 6-week recovery period following completion of the dosing period. […] The length and the weight of the small and large intestines were measured at necropsy as indicators of intestinotrophic effects and the intestinal tract was evaluated histologically.

SBS patients = assay: Fecal wet weight output in SBS-IF/SBS-II patients (metabolic balance studies); assay type: in vivo, human; details: change from baseline
Experimental: The study was designed as a randomized, cross-over and double-blinded with three different doses of ZP1848 (10 mg, 1 mg, 0.1 mg) in 16 SBS patients. The study protocol was approved by the Danish Medical Agency and The Danish Committee on Health Research Ethics.
The 18 SBS patients were randomized evenly and in a double-blinded fashion to each of the six cross-over dose level combinations: 10 mg/1 mg, 10 mg/0.1 mg, 1 mg/10 mg, 1 mg/0.1 mg, 0.1 mg/10 mg, 0.1 mg/1 mg of ZP1848. The SBS patient group comprised 9 females, 9 males; hereof 13 SBS-IF patients and 5 SBS-II patients. Mean age was 62 years, mean short bowel length was 110 cm, and two SBS-IF patients had > 50% colon in continuity. The patients were injected once daily subcutaneously with the above doses of ZP1848.
The aim of this study was to evaluate efficacy of ZP1848 on fecal wet weight output in patients with SBS-II and SBS-IF and thus the absolute change from baseline in wet weight of fecal output as measured by metabolic balance studies prior to and on the […] of each treatment period.

[5] = females, 5 mg/kg/day SC, 39 weeks
[6] = females, end of six-week recovery period
[7] = males, 5 mg/kg/day SC, 39 weeks
[8] = males, end of six-week recovery period
[9] = females, 10 mg/kg SC daily, 26 weeks, main study animals
[10] = females, 10 mg/kg, recovery animals (6-week recovery)
[11] = males, 10 mg/kg SC daily, 26 weeks, main study animals
[12] = males, 10 mg/kg, recovery animals (6-week recovery)

Substance “H-HGEGTFSSELATILDALAARDFIAWLIATKITDKKKKKK-NH2 [ZP1848] [listing 1 of 2 here]” has an EC50 (human GLP-2 receptors) of 0.3 nM.
With “H-HGEGTFSSELATILDALAARDFIAWLIATKITDKKKKKK-NH2” the fragment found [1] was “ZP2469, major; also recorded: ZP2711, major” and the fragment found [2] was “ZP2469 (ZP18481-34), major; also recorded: ZP2711 (ZP18481-35), major”.
Substance “H-HGEGTFSSELATILDALAARDFIAWLIATKITDKKK-OH [ZP2949]” has an EC50 (human GLP-2 receptors) of 0.11 nM.
In the case of lixisenatide, the Half-life [3] is given as 2 to 4 h.
With “H-HGEGTFSSELATILDALAARDFIAWLIATKITDKK-OH [ZP2711]” the EC50 (human GLP-2 receptors) was 0.072 nM, the in vitro potency (human GLP-2 receptors; in words, relative to ZP1848) was “comparable to ZP1848” and the plasma level ([4]; in words, relative to ZP1848 after administration of ZP1848) was “in the same range as that of ZP1848”. For the same substance, the Conc. ([4]; Day 0 (visit 11 or 25, treatment balance study), ZP1848 SC once daily, individual subjects) was 0.131 nM and 0.543 nM, the Conc. ([4]; Day 28-56 (visit 17 or 29, after wash-out/follow-up), individual subjects) was 0.0326 nM and 0.0614 nM and the Half-life ([4]; terminal, from Day 0 and wash-out/follow-up concentrations, individual subjects) was 240 h.
With “H-HGEGTFSSELATILDALAARDFIAWLIATKITDKKKKKK-NH2 [ZP1848] [listing 2 of 2 here]” the “increase in small intestine length” value (Beagle Dogs; [5]) was 37%, the “increase in small intestine weight” value (Beagle Dogs; [5]) was 80% and the “increase in small intestine length” value (Beagle Dogs; [6]) was 19%. The “increase in small intestine weight” value (Beagle Dogs; [6]) was 34%, the “increase in small intestine length” value (Beagle Dogs; [7]) was 46% and the “increase in small intestine weight” value (Beagle Dogs; [7]) was 103%. For the same substance, the “increase in small intestine length” value (Beagle Dogs; [8]) was 16%, the “increase in small intestine weight” value (Beagle Dogs; [8]) was 78% and the “SI length, percentage increase relative to control group” value (Wistar rats; [9]) was 47%. For the same substance, the “SI weight, percentage increase relative to control group” value (Wistar rats; [9]) was 238%, the “SI length, percentage increase relative to control group” value (Wistar rats; [10]) was 45% and the “SI weight, percentage increase relative to control group” value (Wistar rats; [10]) was 101%. The “length and weight of the small intestines” value (Wistar rats; in words, 1, 3 and 10 mg/kg SC daily, 26 weeks) was “dose-related significant (p<0.01) increases”, the “length and weight of the large intestine” value (Wistar rats; in words, 26 weeks SC daily) was “slightly increased” and the “mucosal hyperplasia of the duodenum, jejunum and ileum” value (Wistar rats; in words, histology, 26 weeks SC daily) was “dose-related increase”. The “SI length, percentage increase relative to control group” value (Wistar rats; [11]) was 38%, the “SI weight, percentage increase relative to control group” value (Wistar rats; [11]) was 190% and the “SI length, percentage increase relative to control group” value (Wistar rats; [12]) was 39%. For the same substance, the “SI weight, percentage increase relative to control group” value (Wistar rats; [12]) was 85%, the “Changes in Absolute Fecal Wet Weight Output (Means)” value (shortened to “Changes”) (SBS patients; IF (n=11), 0.1 mg SC once daily) was 196 g/day and the “Changes” value (SBS patients; IF (n=11), 1 mg + 10 mg pooled) was -741 g/day. For the same substance, the “Changes” value (SBS patients; IF (n=11), 1 mg SC once daily) was -587 g/day, the “Changes” value (SBS patients; IF (n=11), 10 mg SC once daily) was -894 g/day and the “Changes” value (SBS patients; II (n=5), 0.1 mg SC once daily) was -37 g/day. The “Changes” value (SBS patients; II (n=5), 1 mg + 10 mg pooled) was -570 g/day, the “Changes” value (SBS patients; II (n=5), 1 mg SC once daily) was -303 g/day and the “Changes” value (SBS patients; II (n=5), 10 mg SC once daily) was -837 g/day. For the same substance, the “Changes” value (SBS patients; II+IF (n=16), 0.1 mg SC once daily) was 173 g/day, the “Changes” value (SBS patients; II+IF (n=16), 1 mg + 10 mg pooled) was -713 g/day and the “Changes” value (SBS patients; II+IF (n=16), 1 mg SC once daily) was -592 g/day. For the same substance, the “Changes” value (SBS patients; II+IF (n=16), 10 mg SC once daily) was -833 g/day.
In the case of “H-HGEGSFSSELSTILDALAARDFIAWLIATKITDKKKKKK-NH2 [ZP1846]”, the EC50 (human GLP-2 receptors) is reported as 0.26 nM.
